Two molecules from patent US12391919B2, “Culture medium, coating matrix and method for maturing midbrain dopaminergic progenitor cells” (NUWACELL BIOTECHNOLOGIES CO., LTD., priority 2022, dated 2025) can be followed below.

The test system of this assay is imDAPs. Description: Flow cytometry (FACS) analysis of FOXA2 expression in expanded imDAPs. Type of assay: cell-based, human. The protocol: • 1. Individualize and collect cells by either Accutase or TrypLE treatment. • 2. Wash cells with 1 ml PBS and pellet cells at 250×g for 15 sec. • 3. Remove supernatant, add ˜200 μl of 4% PFA, mix and fix for 10 min at RT. • 4. Pellet cells at 350×g for 5 min. • 5. Wash cells by 1 ml of FACS buffer and pellet cells at 350×g for 5 min. • 6. Remove supernatant, add 200 μl/tube of FACS buffer/0.1% TritonX, mix for 10 min at RT. • 7. Wash cells by 1 ml of FACS buffer and pellet cells at 350×g for 5 min. • 8. Remove supernatant, add 200 μl/tube of primary antibody diluted in FACS buffer, mix gently, and incubate for 30 min at RT. • 9. Wash cells by 1 ml of FACS buffer and pellet cells at 350×g for 5 min. • 10. Remove supernatant, and add 200 μl of secondary antibody diluted in FACS buffer, mix gently, and incubate for 30 min at RT. • 11. Wash cells by 1 ml of FACS buffer and pellet cells at 300×g for 5 min. • 12. Remove supernatant, add 200 μl of FACS buffer, and run samples on the flow cytometry. (2) qRT-PCR • 1. For qRT-PCR analysis of mRNA gene expression, RNA should be harvested from at least 2×10^6 cells. • 2. Harvest cells, add 350 μl of buffer RLT+1% (vol/vol) s-mercaptoethanol to the well, transfer the lysate to a 1.5 ml tube, and put it immediately on ice. • 3. Perform RNA extraction using the Tiangen Kit (DP430), and follow the manufacturer's protocol ‘Purification of total RNA from animal and human cells’. • 4. When the RNA extraction was completed, determine the RNA concentration using a Nanodrop instrument. • 5. Perform the first-strand cDNA synthesis reaction with 1 μg of RNA using the HiScript TM II Q RT SuperMIX for qPCR(+gDNA wiper) Kit (Vazyme, #R223-01) for RT-qPCR. Follow the manufacturer's ‘First-Strand cDNA Synthesis’ protocol. This reaction would yield a 20 μl product. • 6. Dilute the 10 μl cDNA product in 80 μl of nuclease-free water. • 7. Pipette the diluted cDNA product (1 μl), Sybr green master mix (5 μl, Transgen, #AQ131) and 0.95 μM reverse/forward primer mix (4 μl) into a 384-well PCR plate in triplicate, either manually or using an automated pipetting robot. The complete primer panel included the target genes and the housekeeping gene (RPL13A). In the analysis, also included a sample of undifferentiated hPSCs to determine the gene expression levels relative to the expression in hPSCs. • 8. Analyze the samples by running a quantitative PCR on the LightCycler 480 instrument using a 40× cycle two-step protocol with a 60° C., 60 sec annealing/elongation step and a 95° C., 30 sec denaturation step. The average CT values from the three technical replicates were used for calculations of relative gene expression using the ΔΔCT method. For each gene, calculate the FC of the differentiated samples relative to the undifferentiated control sample using the housekeeping gene for normalization. Next, calculate the average of the FC values on the basis of the housekeeping gene. (3) Immunocytochemical Analysis • 1. Cell fixation: Remove the medium from the cells and wash with PBS. Add 4% (wt/vol) PFA (e.g., 200 μl to a well in a 48-well plate) and incubate at room temperature (RT) for 15 min. after incubation, wash the cells three times in PBS. • 2. Blocking: Remove PBS from the wells and add blocking solution to the cells, add enough volume to cover the cells. Leave the cells in blocking solution for 1 h at RT. • 3. Primary antibodies incubation: Remove the blocking solution from the cells and add the primary antibody solutions (˜100 μl/cm^2). […]
(In general: Flow cytometry measures light scatter and fluorescence of single cells or particles in a stream.)

Consider `c1ccc2c(-c3cnn4cc(-c5ccc(N6CCNCC6)cc5)cnc34)ccnc2c1` [LDN193189], for which the “expression of Foxa2 (percentage of Foxa2+ imDAPs)” value (Example 9, P1 cells compared with P0 cells, DLL4/VTN-coated, FIG. 5C) is on record as “slightly decreased the expression of FOXA2 for imDAPs”.

As for “DLL4: Notch agonist used as second coating matrix”, the “FOXA2 expression (percentage of Foxa2+ imDAPs)” value (Example 8, VTN or DLL4/VTN coating, with or without SB431542, FIG. 4C) is “could improve FOXA2 expression”.
